Test results reported in PubChem BioAssay (NCI).
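Results reflect a 48-hour exposure of cells in 96-well plates to compound at five concentrations. At the GI50, growth is halved. The concentration for full growth arrest is given as TGI.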

How the values were obtained:
Assay in all cases: NCI-60 cell line screen, 48 h
EKVX NSCLC = system: EKVX NSCLC
MDA-MB-435 = system: MDA-MB-435
SF-268 CNS = system: SF-268 CNS
NCI-H23 lung = system: NCI-H23 lung
HS 578T breast = system: HS 578T breast
NCI-H460 lung = system: NCI-H460 lung
SK-OV-3 ovarian = system: SK-OV-3 ovarian
HOP-92 NSCLC = system: HOP-92 NSCLC
HCC-2998 colon = system: HCC-2998 colon
HL-60(TB) leukemia = system: HL-60(TB) leukemia
HT29 colon = system: HT29 colon
NCI/ADR-RES ovarian = system: NCI/ADR-RES ovarian
OVCAR-4 ovarian = system: OVCAR-4 ovarian
M14 melanoma = system: M14 melanoma
K-562 leukemia = system: K-562 leukemia
SW-620 colon = system: SW-620 colon
MCF7 breast = system: MCF7 breast
T-47D breast = system: T-47D breast
SK-MEL-5 melanoma = system: SK-MEL-5 melanoma
CAKI-1 renal = system: CAKI-1 renal
MOLT-4 leukemia = system: MOLT-4 leukemia
DU-145 prostate = system: DU-145 prostate
SNB-75 CNS = system: SNB-75 CNS
NCI-H522 lung = system: NCI-H522 lung
ACHN renal = system: ACHN renal
SNB-19 CNS = system: SNB-19 CNS
UACC-62 melanoma = system: UACC-62 melanoma
A498 renal = system: A498 renal
SR leukemia = system: SR leukemia
NCI-H226 lung = system: NCI-H226 lung
PC-3 prostate = system: PC-3 prostate
HCT-116 colon = system: HCT-116 colon
MDA-MB-231 breast = system: MDA-MB-231 breast
SK-MEL-2 melanoma = system: SK-MEL-2 melanoma
A549 NSCLC = system: A549 NSCLC
COLO 205 colon = system: COLO 205 colon
U251 CNS = system: U251 CNS
CCRF-CEM leukemia = system: CCRF-CEM leukemia
SK-MEL-28 melanoma = system: SK-MEL-28 melanoma
SN12C renal = system: SN12C renal
OVCAR-8 ovarian = system: OVCAR-8 ovarian
BT-549 breast = system: BT-549 breast
OVCAR-3 ovarian = system: OVCAR-3 ovarian
UACC-257 melanoma = system: UACC-257 melanoma
HCT-15 colon = system: HCT-15 colon
MALME-3M melanoma = system: MALME-3M melanoma
TK-10 renal = system: TK-10 renal
SF-295 CNS = system: SF-295 CNS
LOX IMVI melanoma = system: LOX IMVI melanoma
786-0 renal = system: 786-0 renal
SF-539 CNS = system: SF-539 CNS
OVCAR-5 ovarian = system: OVCAR-5 ovarian
HOP-62 NSCLC = system: HOP-62 NSCLC
UO-31 renal = system: UO-31 renal
RPMI-8226 leukemia = system: RPMI-8226 leukemia
KM12 colon = system: KM12 colon
IGROV1 ovarian = system: IGROV1 ovarian

SMILES: N#Cc1cnc2ccc(-c3cnc4n[nH]nc4c3)cc2c1N1CCc2cc(F)c(Cl)cc21
- GI50 (EKVX NSCLC): 3.26 µM
- TGI (EKVX NSCLC): 18.5 µM
- GI50 (MDA-MB-435): 3.73 µM
- TGI (MDA-MB-435): 28.6 µM
- GI50 (SF-268 CNS): 3.22 µM
- TGI (SF-268 CNS): 84.6 µM
- GI50 (NCI-H23 lung): 3.16 µM
- TGI (NCI-H23 lung): 16.1 µM
- GI50 (HS 578T breast): 1.18 µM
- TGI (HS 578T breast): 5.26 µM
- GI50 (NCI-H460 lung): 3.48 µM
- TGI (NCI-H460 lung): 17.4 µM
- GI50 (SK-OV-3 ovarian): 3.52 µM
- TGI (SK-OV-3 ovarian): 19.2 µM
- GI50 (HOP-92 NSCLC): 1.83 µM
- TGI (HOP-92 NSCLC): 7.97 µM
- GI50 (HCC-2998 colon): 2.85 µM
- TGI (HCC-2998 colon): 14.9 µM
- GI50 (HL-60(TB) leukemia): 11.5 µM
- TGI (HL-60(TB) leukemia): 43.6 µM
- GI50 (HT29 colon): 5.73 µM
- TGI (HT29 colon): 35 µM
- GI50 (NCI/ADR-RES ovarian): 12.8 µM
- TGI (NCI/ADR-RES ovarian): 53.3 µM
- GI50 (OVCAR-4 ovarian): 2.66 µM
- TGI (OVCAR-4 ovarian): 22.3 µM
- GI50 (M14 melanoma): 5.15 µM
- TGI (M14 melanoma): 38.2 µM
- GI50 (K-562 leukemia): 4.67 µM
- TGI (K-562 leukemia): > 100 µM
- GI50 (SW-620 colon): 5.2 µM
- TGI (SW-620 colon): 24.6 µM
- GI50 (MCF7 breast): 1.92 µM
- TGI (MCF7 breast): 14 µM
- GI50 (T-47D breast): 1.68 µM
- TGI (T-47D breast): 8 µM
- GI50 (SK-MEL-5 melanoma): 2.83 µM
- TGI (SK-MEL-5 melanoma): 8.47 µM
- GI50 (CAKI-1 renal): 2.99 µM
- TGI (CAKI-1 renal): 25.2 µM
- GI50 (MOLT-4 leukemia): 2.8 µM
- TGI (MOLT-4 leukemia): 11.4 µM
- GI50 (DU-145 prostate): 4.25 µM
- TGI (DU-145 prostate): 66 µM
- GI50 (SNB-75 CNS): 0.395 µM
- TGI (SNB-75 CNS): 5.52 µM
- GI50 (NCI-H522 lung): 2.82 µM
- TGI (NCI-H522 lung): 16.7 µM
- GI50 (ACHN renal): 3.62 µM
- TGI (ACHN renal): 15.3 µM
- GI50 (SNB-19 CNS): 3.9 µM
- TGI (SNB-19 CNS): 77.9 µM
- GI50 (UACC-62 melanoma): 2.63 µM
- TGI (UACC-62 melanoma): 12.6 µM
- GI50 (A498 renal): 1.87 µM
- TGI (A498 renal): 6.69 µM
- GI50 (SR leukemia): 2.3 µM
- TGI (SR leukemia): 25.8 µM
- GI50 (NCI-H226 lung): 2.2 µM
- TGI (NCI-H226 lung): 20 µM
- GI50 (PC-3 prostate): 3.11 µM
- TGI (PC-3 prostate): 25.5 µM
- GI50 (HCT-116 colon): 6.44 µM
- TGI (HCT-116 colon): 25.3 µM
- GI50 (MDA-MB-231 breast): 3.64 µM
- TGI (MDA-MB-231 breast): 23.3 µM
- GI50 (SK-MEL-2 melanoma): 2.74 µM
- TGI (SK-MEL-2 melanoma): 12.7 µM
- GI50 (A549 NSCLC): 3.92 µM
- TGI (A549 NSCLC): 72.6 µM
- GI50 (COLO 205 colon): 9.19 µM
- TGI (COLO 205 colon): 34.3 µM
- GI50 (U251 CNS): 4.66 µM
- TGI (U251 CNS): 86.6 µM
- GI50 (CCRF-CEM leukemia): 3.69 µM
- TGI (CCRF-CEM leukemia): 21.1 µM
- GI50 (SK-MEL-28 melanoma): 3.68 µM
- TGI (SK-MEL-28 melanoma): 33.6 µM
- GI50 (SN12C renal): 3.27 µM
- TGI (SN12C renal): 41.7 µM
- GI50 (OVCAR-8 ovarian): 4.62 µM
- TGI (OVCAR-8 ovarian): > 100 µM
- GI50 (BT-549 breast): 2.31 µM
- TGI (BT-549 breast): 14.6 µM
- GI50 (OVCAR-3 ovarian): 2.97 µM
- TGI (OVCAR-3 ovarian): 24 µM
- GI50 (UACC-257 melanoma): 5.03 µM
- TGI (UACC-257 melanoma): 44.2 µM
- GI50 (HCT-15 colon): 2.71 µM
- TGI (HCT-15 colon): 14 µM
- GI50 (MALME-3M melanoma): 2.91 µM
- TGI (MALME-3M melanoma): 16.4 µM
- GI50 (TK-10 renal): 3.23 µM
- TGI (TK-10 renal): 28.6 µM
- GI50 (SF-295 CNS): 2.54 µM
- TGI (SF-295 CNS): 13.3 µM
- GI50 (LOX IMVI melanoma): 1.76 µM
- TGI (LOX IMVI melanoma): 11.4 µM
- GI50 (786-0 renal): 3.55 µM
- TGI (786-0 renal): > 100 µM
- GI50 (SF-539 CNS): 3.17 µM
- TGI (SF-539 CNS): 18.9 µM
- GI50 (OVCAR-5 ovarian): 4.07 µM
- TGI (OVCAR-5 ovarian): 65.1 µM
- GI50 (HOP-62 NSCLC): 3.45 µM
- TGI (HOP-62 NSCLC): 38.7 µM
- GI50 (UO-31 renal): 1.13 µM
- TGI (UO-31 renal): 11.1 µM
- GI50 (RPMI-8226 leukemia): 3.02 µM
- TGI (RPMI-8226 leukemia): 42.5 µM
- GI50 (KM12 colon): 4.66 µM
- TGI (KM12 colon): 32.3 µM
- GI50 (IGROV1 ovarian): 1.42 µM
- TGI (IGROV1 ovarian): 6.19 µM

SMILES: C=C(C=O)[C@@H]1CC[C@]2(COC(C)=O)CC[C@]3(C)C(CC[C@@H]4[C@@]5(C)CC[C@H](OC(C)=O)C(C)(C)[C@@H]5CC[C@]43C)[C@@H]12 (stereo partly specified)
- GI50 (NCI-H460 lung): > 100 µM
- TGI (NCI-H460 lung): > 100 µM
- GI50 (SK-OV-3 ovarian): > 100 µM
- TGI (SK-OV-3 ovarian): > 100 µM
- GI50 (A498 renal): > 100 µM
- TGI (A498 renal): > 100 µM
- GI50 (A549 NSCLC): > 100 µM
- TGI (A549 NSCLC): > 100 µM
- GI50 (TK-10 renal): > 100 µM
- TGI (TK-10 renal): > 100 µM
- GI50 (HOP-62 NSCLC): > 100 µM
- TGI (HOP-62 NSCLC): > 100 µM
